# US10793568B2, “Hormone receptor modulators for treating metabolic conditions and disorders” (ARDELYX, INC., priority 2016, dated 2020)
# Experiments:
# [1] = target: ligand binding domain of human FXR (Homo sapiens (Human), UniProt Q96RI1); assay: FXR ligand binding assay (LanthaScreen TR-FRET, SRC2-2 peptide recruitment); details: for pEC50: -log EC50, concentration required to produce 50% activation; for Emax: extent of activation relative to GW4064, read-out: % Efficacy
# [2] = target: human Farnesoid X receptor ligand-binding domain/Gal4 DNA binding domain chimera (Homo sapiens (Human), UniProt Q96RI1); assay: Cell-based assay of FXR activation (FXR-UAS-bla HEK 293T beta-lactamase reporter); details: cellular FXR beta-lactamase reporter assay; for EC50: FXR-UAS-bla HEK 293T cells, 16 h, pEC50 = -log EC50; for Emax: HEK-293T, extent of activation relative to GW4064, read-out: % Efficacy
# human Farnesoid X receptor ligand-binding domain/Gal4 DNA binding domain chimera, sequence (Q96RI1 262-486, change not shown): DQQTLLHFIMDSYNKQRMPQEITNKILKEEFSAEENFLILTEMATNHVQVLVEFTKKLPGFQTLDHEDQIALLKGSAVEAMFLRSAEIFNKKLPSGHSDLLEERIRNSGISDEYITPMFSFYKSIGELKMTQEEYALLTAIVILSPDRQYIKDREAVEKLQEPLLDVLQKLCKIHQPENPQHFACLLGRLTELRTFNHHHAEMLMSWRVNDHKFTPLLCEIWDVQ
# human Farnesoid X receptor ligand-binding domain/Gal4 DNA binding domain chimera, sequence (P04386 1-147 partner): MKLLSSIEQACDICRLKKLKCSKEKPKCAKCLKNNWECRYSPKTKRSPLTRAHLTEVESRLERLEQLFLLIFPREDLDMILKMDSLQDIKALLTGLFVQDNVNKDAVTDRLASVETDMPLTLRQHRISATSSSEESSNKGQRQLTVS
# In short: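 HEK 293T cells stably expressing a Gal4-fused human FXR LBD and a UAS-driven beta-lactamase reporter were incubated with serially diluted compounds for 16 h at 37 °C in phenol red-free DMEM with 2% charcoal-stripped FBS. CCF4 FRET read-out: excitation 409 nm, emission 447 nm. pEC50 comes from a 3-parameter logistic fit, and efficacy is given as % of GW4064.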
# ligand binding domain of human FXR, sequence (Q96RI1 262-486): as the sequence (Q96RI1 262-486, change not shown) above
SMILES,pEC50 [1],Emax [1] [%],EC50 [2] [nM],Emax [2] [%]
"O=C(O)c1cc(F)c2nc(N3C[C@@H]4C[C@H]3C[C@H]4OCc3c(-c4ccccc4O)noc3C3CC3)sc2c1 [Compound I-291, 2-((1S,4S,5R)-5-((5-cyclopropyl-3-(2-hydroxyphenyl)isoxazol-4-yl)methoxy)-2-azabicyclo[2.2.1]heptan-2-yl)-4-fluorobenzo[d]thiazole-6-carboxylic acid]",6.1,120,< 31.6,–
"O=C(O)c1cc(F)c2nc(N3C[C@@H]4C[C@H]3C[C@H]4OCc3c(-c4cccc(O)c4)noc3C3CC3)sc2c1 [Compound I-292, 2-((1S,4S,5R)-5-((5-cyclopropyl-3-(3-hydroxyphenyl)isoxazol-4-yl)methoxy)-2-azabicyclo[2.2.1]heptan-2-yl)-4-fluorobenzo[d]thiazole-6-carboxylic acid]",6.5,120,< 31.6,–
"O=C(O)c1cc(F)c2nc(N3C[C@@H]4C[C@H]3C[C@H]4OCc3c(-c4ccc(O)cc4)noc3C3CC3)sc2c1 [Compound I-293, 2-((1S,4S,5R)-5-((5-cyclopropyl-3-(4-hydroxyphenyl)isoxazol-4-yl)methoxy)-2-azabicyclo[2.2.1]heptan-2-yl)-4-fluorobenzo[d]thiazole-6-carboxylic acid]",>4.5,–,< 31.6,–
"CCc1cc(C(=O)O)cc2sc(N3C(=O)[C@@H]4C[C@H]3C[C@H]4OCc3c(-c4c(Cl)cccc4Cl)noc3C3CC3)nc12 [Compound I-294, 2-[(1S,4R,5R)-5-{[5-cyclopropyl-3-(2,6-dichlorophenyl)-1,2-oxazol-4-yl]methoxy}-3-oxo-2-azabicyclo[2.2.1]heptan-2-yl]-4-ethyl-1,3-benzothiazole-6-carboxylic Acid]",8.2,82,2.51,104
"O=C(O)c1cc(C2CC2)c2nc(N3C(=O)[C@@H]4C[C@H]3C[C@H]4OCc3c(-c4c(Cl)cccc4Cl)noc3C3CC3)sc2c1 [Compound I-295, 4-cyclopropyl-2-((1S,4R,5R)-5-((5-cyclopropyl-3-(2,6-dichlorophenyl)isoxazol-4-yl)methoxy)-3-oxo-2-azabicyclo[2.2.1]heptan-2-yl)benzo[d]thiazole-6-carboxylic acid]",8.2,98,1,105
"O=C(O)c1cc(C2CCC2)c2nc(N3C(=O)[C@@H]4C[C@H]3C[C@H]4OCc3c(-c4c(Cl)cccc4Cl)noc3C3CC3)sc2c1 [Compound I-296, 4-cyclobutyl-2-((1S,4R,5R)-5-((5-cyclopropyl-3-(2,6-dichlorophenyl)isoxazol-4-yl)methoxy)-3-oxo-2-azabicyclo[2.2.1]heptan-2-yl)benzo[d]thiazole-6-carboxylic acid]",7.6,90,10,109
"O=C(O)c1cc(OC2CC2)c2nc(N3C(=O)[C@@H]4C[C@H]3C[C@H]4OCc3c(-c4c(Cl)cccc4Cl)noc3C3CC3)sc2c1 [Compound I-297, 4-cyclopropoxy-2-((1S,4R,5R)-5-((5-cyclopropyl-3-(2,6-dichlorophenyl)isoxazol-4-yl)methoxy)-3-oxo-2-azabicyclo[2.2.1]heptan-2-yl)benzo[d]thiazole-6-carboxylic acid]",9,77,0.316,110
"O=C(O)c1cc(C2CCOCC2)c2nc(N3C(=O)[C@@H]4C[C@H]3C[C@H]4OCc3c(-c4c(Cl)cccc4Cl)noc3C3CC3)sc2c1 [Compound I-298, 2-((1S,4R,5R)-5-((5-cyclopropyl-3-(2,6-dichlorophenyl)isoxazol-4-yl)methoxy)-3-oxo-2-azabicyclo[2.2.1]heptan-2-yl)-4-(tetrahydro-2H-pyran-4-yl)benzo[d]thiazole-6-carboxylic acid]",–,133,7.94,112
"O=C(O)c1cc(C2CCOC2)c2nc(N3C(=O)[C@@H]4C[C@H]3C[C@H]4OCc3c(-c4c(Cl)cccc4Cl)noc3C3CC3)sc2c1 (stereo partly drawn) [Compound I-299, 2-((1S,4R,5R)-5-((5-cyclopropyl-3-(2,6-dichlorophenyl)isoxazol-4-yl)methoxy)-3-oxo-2-azabicyclo[2.2.1]heptan-2-yl)-4-(tetrahydrofuran-3-yl)benzo[d]thiazole-6-carboxylic acid]",8,112,3.98,108
"O=C(O)c1cc(C2CC3(CCOCC3)C2)c2nc(N3C(=O)[C@@H]4C[C@H]3C[C@H]4OCc3c(-c4c(Cl)cccc4Cl)noc3C3CC3)sc2c1 [Compound I-300, 2-((1S,4R,5R)-5-((5-cyclopropyl-3-(2,6-dichlorophenyl)isoxazol-4-yl)methoxy)-3-oxo-2-azabicyclo[2.2.1]heptan-2-yl)-4-(7-oxaspiro[3.5]nonan-2-yl)benzo[d]thiazole-6-carboxylic acid]",1,82,100,117
"O=C(O)c1cc(O[C@H]2CCOC2)c2nc(N3C(=O)[C@@H]4C[C@H]3C[C@H]4OCc3c(-c4c(Cl)cccc4Cl)noc3C3CC3)sc2c1 [Compound I-302, 2-((1S,4R,5R)-5-((5-cyclopropyl-3-(2,6-dichlorophenyl)isoxazol-4-yl)methoxy)-3-oxo-2-azabicyclo[2.2.1]heptan-2-yl)-4-(((S)-tetrahydrofuran-3-yl)oxy)benzo[d]thiazole-6-carboxylic acid]",8.4,106,39.8,114
"O=C(O)CCc1ccc(N2C(=O)[C@@H]3C[C@H]2C[C@H]3OCc2c(-c3c(Cl)cccc3Cl)noc2C2CC2)cc1 [Compound I-303, 3-{4-[(1S,4R,5R)-5-{[5-cyclopropyl-3-(2,6-dichlorophenyl)-1,2-oxazol-4-yl]methoxy}-3-oxo-2-azabicyclo[2.2.1]heptan-2-yl]phenyl}propanoic Acid]",7.4,132,6.31,98
"O=C(O)CCc1ccc(N2C(=O)[C@@H]3C[C@H]2C[C@H]3OCc2c(-c3c(Cl)cccc3Cl)noc2C2CC2)c(F)c1 [Compound I-304, 3-{4-[(1S,4R,5R)-5-{[5-cyclopropyl-3-(2,6-dichlorophenyl)-1,2-oxazol-4-yl]methoxy}-3-oxo-2-azabicyclo[2.2.1]heptan-2-yl]-3-fluorophenyl}propanoic Acid]",6.6,118,100,107
"O=C(O)CCc1ccc(N2C(=O)[C@@H]3C[C@H]2C[C@H]3OCc2c(-c3c(Cl)cccc3Cl)noc2C2CC2)cc1F [Compound I-305, 3-{4-[(1S,4R,5R)-5-{[5-cyclopropyl-3-(2,6-dichlorophenyl)-1,2-oxazol-4-yl]methoxy}-3-oxo-2-azabicyclo[2.2.1]heptan-2-yl]-2-fluorophenyl}propanoic Acid]",7.5,121,3.16,98
"O=C(O)c1ccc(N2C(=O)[C@@H]3C[C@H]2C[C@H]3OCc2c(-c3c(F)cccc3Cl)noc2C2CC2)cc1 [Compound I-306, 4-[(1S,4R,5R)-5-{[3-(2-chloro-6-fluorophenyl)-5-cyclopropyl-1,2-oxazol-4-yl]methoxy}-3-oxo-2-azabicyclo[2.2.1]heptan-2-yl]benzoic Acid]",8.2,171,2.51,108
"Cc1cccc(F)c1-c1noc(C2CC2)c1CO[C@@H]1C[C@@H]2C[C@H]1C(=O)N2c1ccc(C(=O)O)cc1 [Compound I-307, 4-[(1S,4R,5R)-5-{[5-cyclopropyl-3-(2-fluoro-6-methylphenyl)-1,2-oxazol-4-yl]methoxy}-3-oxo-2-azabicyclo[2.2.1]heptan-2-yl]benzoic Acid]",7.4,154,10,110
"Cc1cccc(C)c1-c1noc(C2CC2)c1CO[C@@H]1C[C@@H]2C[C@H]1C(=O)N2c1ccc(C(=O)O)cc1 [Compound I-308, 4-[(1S,4R,5R)-5-{[5-cyclopropyl-3-(2,6-dimethylphenyl)-1,2-oxazol-4-yl]methoxy}-3-oxo-2-azabicyclo[2.2.1]heptan-2-yl]benzoic Acid]",7.6,150,3.98,99
"Cc1cccc(Cl)c1-c1noc(C2CC2)c1CO[C@@H]1C[C@@H]2C[C@H]1C(=O)N2c1ccc(C(=O)O)cc1 [Compound I-309, 4-[(1S,4R,5R)-5-{[3-(2-chloro-6-methylphenyl)-5-cyclopropyl-1,2-oxazol-4-yl]methoxy}-3-oxo-2-azabicyclo[2.2.1]heptan-2-yl]benzoic Acid]",8.2,157,1.58,104
"CC(C)c1cccc(F)c1-c1noc(C2CC2)c1CO[C@@H]1C[C@@H]2C[C@H]1C(=O)N2c1ccc(C(=O)O)cc1 [Compound I-310, 4-[(1S,4R,5R)-5-({5-cyclopropyl-3-[2-fluoro-6-(propan-2-yl)phenyl]-1,2-oxazol-4-yl}methoxy)-3-oxo-2-azabicyclo[2.2.1]heptan-2-yl]benzoic Acid]",7.6,155,7.94,115
"O=C(O)c1ccc(N2C(=O)[C@@H]3C[C@H]2C[C@H]3OCc2c(-c3c(F)cccc3C3CC3)noc2C2CC2)cc1 [Compound I-311, 4-[(1S,4R,5R)-5-{[5-cyclopropyl-3-(2-cyclopropyl-6-fluorophenyl)-1,2-oxazol-4-yl]methoxy}-3-oxo-2-azabicyclo[2.2.1]heptan-2-yl]benzoic Acid]",7.8,148,3.98,105
